Source: patent US20240415793A1, “Neuroprotective composition comprising pyruvate and citrate” (N.V. Nutricia, priority 2022, published 2024)

Columns and labels:
neuroglial cell cultures = assay: Seahorse assay (OCR/ECAR), 24-hour incubation with citrate under resting conditions; format: cell-based, rat; conditions: 0.8 mM Mg2+, vs control medium; for increase in basal glycolytic rates: FIG. 5A; for increase in OM-induced increase in glycolytic rates: FIG. 5B; for increase in FCCP-induced maximal glycolytic capacity: FIG. 5C
Protocol: The oxygen consumption rates (OCRs) and extracellular acidification rates (ECARs) of cells seeded in 96-well plates were monitored in real time at 37° C. in unbuffered Hanks Balanced Salt Solution (HBSS). The OCRs represent foremost mitochondrial respiration, and to a minor extent non-mitochondrial respiration. The ECARs relate foremost to the acidification of the medium with lactate produced through glycolysis and secreted by the cells into the medium (Table 1).
During the Seahorse run, both the OCRs and ECARs were measured simultaneously at baseline and following the injection of compounds by the Seahorse instrument (Table 1). HBSS was supplemented with glucose from the start and no glucose was injected through the Seahorse instruments. Measurements were repeated three times at baseline and three times after each compound injection.
After the initial baseline measurement, oligomycin (OM) was injected. OM blocks mitochondrial ATP synthase (complex V) and therefore decreases mitochondrial respiration. The OCRs after OM injection are due to the mitochondrial proton leak. They enable to determine whether the test nutrients impact the proton leak. The difference in OCRs at baseline and after OM injection is the amount of oxygen used for mitochondrial ATP synthesis at baseline. From this difference in OCR, the mitochondrial ATP production rates are calculated.
After OM, uncoupling agent carbonyl cyanide-p- trifluoromethoxyphenyl-hydrazon [FCCP] was injected which collapses the proton gradient across the inner mitochondrial membrane established during respiration and required for ATP synthesis. The cells attempt to restore the proton gradient following FCCP injection by maximizing respiration. The OCRs measured after FCCP injection therefore represent the maximal respiratory capacity of the mitochondria in the sample and enable to determine whether test nutrients impact the maximal respiratory capacity of the mitochondria.
Finally, Antimycin A, a complex III inhibitor, and Rotenone, a complex I inhibitor, were co-injected, both blocking the respiratory chain at different sites to entirely shut down mitochondrial respiration and determine the non-mitochondrial respiration. The latter is necessary to correct all OCRs and obtain the mitochondrial OCRs.
The ECARs were measured simultaneously at baseline and after OM and FCCP injection. The glycolytic ATP production was calculated from the baseline ECARs. The subsequent injection of OM pushed the cells to maximize their glycolytic ATP production to compensate for the loss in mitochondrial ATP production inflicted by OM. The further addition of FCCP drove mitochondrial respiration to a maximum and this eventually led to a further increase in glycolytic rates providing pyruvate into the TCA cycle to sustain maximal respiration. Therefore, the ECARs after FCCP injection were used to determine the maximum glycolytic capacity of the cells.
Further, the effects of a 24-hour incubation with citrate on glycolysis, mitochondrial respiration and total (glycolytic and mitochondrial) energy (ATP) production under resting conditions was assessed. Neuroglial cell cultures were grown in Neurobasal medium (NBM) supplemented with B27, high (25 mM) glucose, and high (0.8 mM) Mg2+ from DIV0 until DIV14. They were switched to NBM supplemented with B27, low (5 mM) glucose, and high (0.8 mM) Mg^2+ from DIV14 until DIV16. On DIV16, the medium was exchanged for DMEM (which is, in contrast to HBSS, not a nutrient-deprived medium) containing low (5 mM) glucose, high (0.8 mM) Mg^2+ and 500 μM or 1 mM citrate. On DIV17, one hour prior to the Seahorse run, the medium was replaced with unbuffered DMEM containing low (5 mM) glucose, high (0.8 mM) Mg^2+ and 500 μM or 1 mM citrate. The cells were left in this medium until the end of the run. Five repeats per condition were done.

[1] = tested on: primary mouse neuroglial cultures; assay: Cell death by high content imaging (Hoechst/NeuN nuclear shrinkage) after chronic hyperstimulation; format: cell-based; conditions: 1 mM
Protocol: To determine whether pyruvate and citrate protect neurons and glial cells from cell death induced by chronic electrical hyperstimulation. To assess protection from cell death induced by repeated hyperstimulation, primary mouse neuroglial cultures were assayed. Neuroglial cell cultures were prepared and grown until DIV14 as described above. From DIV14 until DIV17 they were switched to NBM containing B27, low (2.5 mM) glucose, and low (0.1 mM) Mg^2+ or high (0.8 mM) Mg^2+. Incubation in low (0.1 mM) Mg^2+ medium increases the neuronal firing rates, thus creating a state of chronic hyperstimulation. The test nutrients (pyruvate or citrate) were supplied through the medium from DIV14 until DIV17. On DIV17, the cell nuclei were stained with the Hoechst dye and co-immunolabelled for NeuN, a protein found only in the nuclei of neurons. The neuronal and non-neuronal cell nuclei were scored for nuclear shrinkage, a hallmark of cell death, by high content imaging.
To assess cell death by high content imaging the cells were fixed on DIV17 in 1% formaldehyde, permeabilized with ethanol and incubated with a rabbit polyclonal IgG antibody against NeuN, a neuron-specific protein localized to the nucleus, followed by detection with a secondary anti-rabbit IgG antibody linked to a red fluorescent label. Neuronal and non-neuronal cell nuclei were then counterstained with the blue fluorescent nuclear dye Hoechst. The nuclei were counted by a high content imager based on signal intensity and size. A cut-off value was applied to exclude objects of low signal intensity considered noise. Then, cut-off values were applied to exclude objects with an area below 30 μM^2 considered cell debris and objects with an area above 300 μM^2 considered cell clumps. A boundary of 60 μM^2 was set to distinguish between nuclei from alive and dead cells. Objects areas of 30 μM^2 to 60 μM^2 were counted as nuclei from dead cells, while object areas of 60 μM^2 to 300 μM^2 were counted as nuclei from alive cells. The counting was done at 20-fold magnification on a fixed number of optical fields per well. The counts of nuclei from dead neurons or dead cells were related to the number of alive neurons or alive cells, respectively, in the same well.
Neuroglial cell cultures were supplemented with 1 mM citrate from DIV14 until DIV17. On DIV17, total cell death and neuron-specific cell death were quantified by high content imaging. The total number of Hoechst positive objects or NeuN positive objects prior to applying cut-off values for the signal intensity and the area size was equal between the different groups (FIG. 10 A, D).

[2] = tested on: primary rat neuronal-glial cell cultures; assay: Seahorse assay (OCR/ECAR), acute 1 h nutrient pre-incubation, resting or seizure-like conditions; format: cell-based; conditions: for increase in OM-induced glycolytic rates (tended): FIG. 3D

What does the source list for `O=C(O)CC(O)(CC(=O)O)C(=O)O` [citrate]?
increase in basal mitochondrial respiration (neuroglial cell cultures; 500 μM and 1 mM citrate, FIG. 4B): ~60%; increase in FCCP-induced maximal mitochondrial respiratory capacity (neuroglial cell cultures; 500 μM and 1 mM citrate, FIG. 4C): 60-70%; increase in basal mitochondrial and glycolytic ATP production (neuroglial cell cultures; 500 μM and 1 mM citrate, DMEM 5 mM glucose, FIG. 4A): ~45%; increase in basal glycolytic rates (neuroglial cell cultures; 500 μM citrate): ~45%; increase in OM-induced increase in glycolytic rates (neuroglial cell cultures; 500 μM citrate): ~70%; increase in FCCP-induced maximal glycolytic capacity (neuroglial cell cultures; 500 μM citrate): ~75%; increase in basal glycolytic rates (neuroglial cell cultures; 1 mM citrate): ~20%; increase in OM-induced increase in glycolytic rates (neuroglial cell cultures; 1 mM citrate): ~30%; increase in FCCP-induced maximal glycolytic capacity (neuroglial cell cultures; 1 mM citrate): ~50%; increase in dead cell counts from high Mg2+ to low Mg2+ medium ([1]; DIV14-DIV17, chronic hyperstimulation, FIG. 10C/11C): ~4%; dead cell counts ([1]; DIV14-DIV17, high (0.8 mM) Mg2+ medium, FIG. 10C/11C): ~19%; dead neuron count (neuron death) ([1]; DIV14-DIV17, high Mg2+ medium, FIG. 10F/11F): −1.5%; dead cell counts ([1]; DIV14-DIV17, low (0.1 mM) Mg2+ medium, FIG. 10C/11C): ~23%; dead neuron count (neuron death) ([1]; DIV14-DIV17, low Mg2+ medium, FIG. 10F/11F): ~1.4%; effect on alive cell count ([1]; DIV14-DIV17, FIG. 10B/11B): not impacting; effect on rise in neuron death induced by chronic hyperstimulation ([1]; DIV14-DIV17, FIG. 10F/11F): entirely blocked; increase in OM-induced glycolytic rates (tended) ([2]; 1 mM citrate, 0.1 mM Mg2+ medium): ~15%; increase in total (mitochondrial and glycolytic) ATP production ([2]; 1 mM citrate, 0.8 mM Mg2+ control medium, FIG. 3A): ~75%; increase in basal mitochondrial respiration ([2]; 1 mM citrate, 0.8 mM Mg2+ control medium, FIG. 3B): ~100%; increase in FCCP-driven maximal glycolytic capacity (tended) ([2]; 1 mM citrate, 0.8 mM Mg2+ control medium, FIG. 3E): ~35%; increase in basal glycolytic rates ([2]; 1 mM citrate, 0.8 mM Mg2+ medium, FIG. 3C): ~70%; increase in OM-induced glycolytic rates (tended) ([2]; 1 mM citrate, 0.8 mM Mg2+ medium): ~60%; increase in mitochondrial oxygen consumption rates (OCR) at baseline ([2]; resting, high Mg2+ medium (DMEM, 5 mM glucose), dose-dependent, vs control medium without citrate, FIG. 1E): ≤ 25%; increase in OM-induced proton leak ([2]; resting, high Mg2+ medium (DMEM, 5 mM glucose), vs control medium without citrate, FIG. 1F): ≤ 10%; effect on FCCP-driven maximal respiratory capacity ([2]; resting, high Mg2+ medium (DMEM, 5 mM glucose), vs control medium without citrate, FIG. 1G): not significantly impacting; increase in OM- and FCCP-induced maximal glycolytic capacity ([2]; resting, high Mg2+ medium, 0.25 mM citrate, FIG. 2E, F): 10-15%; increase in basal glycolytic rates and lactate secretion ([2]; resting, high Mg2+ medium, acute, dose-dependent, FIG. 2D): ~25%
